Assay results reported in PubChem BioAssay (NCI).
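Following 48 hours of exposure in 96-well plates, responses at five concentrations were used to interpolate endpoints linearly. At the GI50, growth is halved. TGI is the concentration that stops growth completely.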

Assays:
Experiment in all cases: NCI-60 cell line screen, 48 h
SK-OV-3 ovarian = system: SK-OV-3 ovarian
SN12C renal = system: SN12C renal
SF-295 CNS = system: SF-295 CNS
SF-539 CNS = system: SF-539 CNS
NCI-H226 lung = system: NCI-H226 lung
RXF 393 renal = system: RXF 393 renal
M14 melanoma = system: M14 melanoma
OVCAR-3 ovarian = system: OVCAR-3 ovarian
A549 NSCLC = system: A549 NSCLC
NCI/ADR-RES ovarian = system: NCI/ADR-RES ovarian
U251 CNS = system: U251 CNS
CCRF-CEM leukemia = system: CCRF-CEM leukemia
CAKI-1 renal = system: CAKI-1 renal
HCC-2998 colon = system: HCC-2998 colon
OVCAR-5 ovarian = system: OVCAR-5 ovarian
HOP-62 NSCLC = system: HOP-62 NSCLC
BT-549 breast = system: BT-549 breast
MDA-MB-231 breast = system: MDA-MB-231 breast
UO-31 renal = system: UO-31 renal
SF-268 CNS = system: SF-268 CNS
TK-10 renal = system: TK-10 renal
HT29 colon = system: HT29 colon
MCF7 breast = system: MCF7 breast
SK-MEL-28 melanoma = system: SK-MEL-28 melanoma
SNB-75 CNS = system: SNB-75 CNS
HCT-15 colon = system: HCT-15 colon
RPMI-8226 leukemia = system: RPMI-8226 leukemia
NCI-H522 lung = system: NCI-H522 lung

Structure (SMILES): COc1ccc(C2SCC(=O)N2NC(=O)Nc2c(C)nc3ccccn23)cc1 (stereo not given)
- TGI (SK-OV-3 ovarian): 47.6 µM
- GI50 (SN12C renal): 54.4 µM
- TGI (SN12C renal): > 100 µM
- GI50 (SF-295 CNS): 24.5 µM
- TGI (SF-295 CNS): 57.3 µM
- GI50 (SF-539 CNS): 34.1 µM
- TGI (SF-539 CNS): > 100 µM
- GI50 (NCI-H226 lung): 42.8 µM
- TGI (NCI-H226 lung): > 100 µM
- GI50 (RXF 393 renal): 26.4 µM
- TGI (RXF 393 renal): 69.3 µM
- GI50 (M14 melanoma): > 100 µM
- TGI (M14 melanoma): > 100 µM
- GI50 (OVCAR-3 ovarian): > 100 µM
- TGI (OVCAR-3 ovarian): > 100 µM
- GI50 (A549 NSCLC): > 100 µM
- TGI (A549 NSCLC): > 100 µM
- GI50 (NCI/ADR-RES ovarian): 40.2 µM
- TGI (NCI/ADR-RES ovarian): > 100 µM
- GI50 (U251 CNS): 13.8 µM
- TGI (U251 CNS): 27.9 µM
- GI50 (CCRF-CEM leukemia): > 100 µM
- TGI (CCRF-CEM leukemia): > 100 µM
- GI50 (CAKI-1 renal): > 100 µM
- TGI (CAKI-1 renal): > 100 µM
- GI50 (HCC-2998 colon): > 100 µM
- TGI (HCC-2998 colon): > 100 µM
- GI50 (OVCAR-5 ovarian): 28.9 µM
- TGI (OVCAR-5 ovarian): > 100 µM
- GI50 (HOP-62 NSCLC): 16.4 µM
- TGI (HOP-62 NSCLC): 31.1 µM
- GI50 (BT-549 breast): 24.2 µM
- TGI (BT-549 breast): 65 µM
- GI50 (MDA-MB-231 breast): 15.8 µM
- TGI (MDA-MB-231 breast): 34.7 µM
- GI50 (UO-31 renal): 32.7 µM
- TGI (UO-31 renal): > 100 µM
- GI50 (SF-268 CNS): 39.7 µM
- TGI (SF-268 CNS): > 100 µM
- GI50 (TK-10 renal): 22.6 µM
- TGI (TK-10 renal): 49 µM
- GI50 (HT29 colon): > 100 µM
- TGI (HT29 colon): > 100 µM
- GI50 (MCF7 breast): 75.7 µM
- TGI (MCF7 breast): > 100 µM
- GI50 (SK-MEL-28 melanoma): > 100 µM
- TGI (SK-MEL-28 melanoma): > 100 µM
- GI50 (SNB-75 CNS): 4.76 µM
- TGI (SNB-75 CNS): 19.9 µM
- GI50 (HCT-15 colon): > 100 µM
- TGI (HCT-15 colon): > 100 µM
- GI50 (RPMI-8226 leukemia): > 100 µM
- TGI (RPMI-8226 leukemia): > 100 µM
- GI50 (NCI-H522 lung): 32.8 µM
- TGI (NCI-H522 lung): 95.4 µM
